Experimental data: patent US20260297109A1, “COMPOUNDS AS SUMO ACTIVATING ENZYME INHIBITORS” (WIGEN BIOMEDICINE TECHNOLOGY (SHANGHAI) CO., LTD., priority 2022, published 2026)

target: T1, SAE (Homo sapiens, UniProt Q9UBT2); experiment: SUMO IF: in vitro inhibitory activity assay against SAE in HCT116 cells (SUMO-2/3 immunofluorescence); assay type: cell-based; settings: class symbols, 6 h at 37° C.
T1 construct: endogenous in cells; host or cells: HCT116
T1 sequence (Q9UBT2 1-640): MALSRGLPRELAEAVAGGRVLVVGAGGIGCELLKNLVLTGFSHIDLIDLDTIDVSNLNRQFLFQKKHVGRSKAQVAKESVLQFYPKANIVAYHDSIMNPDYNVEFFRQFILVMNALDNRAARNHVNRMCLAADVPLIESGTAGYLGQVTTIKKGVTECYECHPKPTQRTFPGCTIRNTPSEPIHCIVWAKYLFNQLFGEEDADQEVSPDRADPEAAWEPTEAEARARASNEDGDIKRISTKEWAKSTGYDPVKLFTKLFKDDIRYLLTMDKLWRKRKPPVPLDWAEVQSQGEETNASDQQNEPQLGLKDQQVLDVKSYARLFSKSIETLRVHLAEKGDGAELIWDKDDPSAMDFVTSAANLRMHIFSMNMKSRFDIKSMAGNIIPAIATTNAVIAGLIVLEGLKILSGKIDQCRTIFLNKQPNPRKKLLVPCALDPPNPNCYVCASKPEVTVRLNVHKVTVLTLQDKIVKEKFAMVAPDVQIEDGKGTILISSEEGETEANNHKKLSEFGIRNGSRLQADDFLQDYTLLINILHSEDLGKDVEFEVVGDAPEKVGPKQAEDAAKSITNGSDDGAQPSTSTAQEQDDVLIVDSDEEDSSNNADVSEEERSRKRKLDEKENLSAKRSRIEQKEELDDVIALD
T1 sequence (Q9UBE0 1-346): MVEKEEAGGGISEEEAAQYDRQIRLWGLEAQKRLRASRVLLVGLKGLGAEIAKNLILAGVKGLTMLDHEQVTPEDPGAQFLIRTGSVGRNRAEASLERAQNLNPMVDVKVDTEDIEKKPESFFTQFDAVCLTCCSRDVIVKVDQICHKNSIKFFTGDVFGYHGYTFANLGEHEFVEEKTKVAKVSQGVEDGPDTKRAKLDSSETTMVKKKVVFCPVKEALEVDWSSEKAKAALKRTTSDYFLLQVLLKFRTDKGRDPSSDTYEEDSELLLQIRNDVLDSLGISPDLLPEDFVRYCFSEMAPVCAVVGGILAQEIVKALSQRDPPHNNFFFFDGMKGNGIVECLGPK
In short: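 SUMO-2/3 immunofluorescence (18H8 primary 1:400, FITC secondary 1:300) was read after 6 h compound exposure of HCT116 cells at 37 °C. Inhibition rate and IC50 derive from signal relative to DMSO-treated wells.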

SMILES | IC50 [nM]
NS(=O)(=O)OC[C@H]1[C@H](F)[C@@H](Nc2ncncc2C(=O)c2cc3c(s2)CSC[C@]32NCCc3ccccc32)C[C@@H]1O [Compound 296] | 50 to 200
NS(=O)(=O)OC[C@H]1[C@H](F)[C@@H](Nc2ncncc2C(=O)c2cc3c(s2)CSCC32NCCc3ccc(F)cc32)C[C@@H]1O (stereo partly drawn) [Compound 297] | ≤ 50
NS(=O)(=O)OC[C@H]1[C@H](F)[C@@H](Nc2ncncc2C(=O)c2cc3c(s2)CSC[C@@]32NCCc3ccc(F)cc32)C[C@@H]1O [Compound 298] | > 200
NS(=O)(=O)OC[C@H]1[C@H](F)[C@@H](Nc2ncncc2C(=O)c2cc3c(s2)CSC[C@]32NCCc3ccc(F)cc32)C[C@@H]1O [Compound 299] | ≤ 50
NS(=O)(=O)OC[C@H]1[C@H](F)[C@@H](Nc2ncncc2C(=O)c2cc3c(s2)CSCC32NCCc3ccc(Cl)cc32)C[C@@H]1O (stereo partly drawn) [Compound 300] | ≤ 50
NS(=O)(=O)OC[C@H]1[C@H](F)[C@@H](Nc2ncncc2C(=O)c2cc3c(s2)C(F)=CC32NCCc3ccc(Cl)cc32)C[C@@H]1O (stereo partly drawn) [Compound 321] | ≤ 50
NS(=O)(=O)OC[C@H]1[C@H](F)[C@@H](Nc2ncncc2C(=O)c2cc3c(s2)C(F)=C[C@@]32NCCc3ccc(Cl)cc32)C[C@@H]1O [Compound 322] | > 200
NS(=O)(=O)OC[C@H]1[C@H](F)[C@@H](Nc2ncncc2C(=O)c2cc3c(s2)C(F)=C[C@]32NCCc3ccc(Cl)cc32)C[C@@H]1O [Compound 323] | ≤ 50
CC1=CC2(NCCc3ccc(Cl)cc32)c2cc(C(=O)c3cncnc3N[C@H]3C[C@H](O)[C@@H](COS(N)(=O)=O)[C@@H]3F)sc21 (stereo partly drawn) [Compound 324] | 50 to 200
CC1=C[C@@]2(NCCc3ccc(Cl)cc32)c2cc(C(=O)c3cncnc3N[C@H]3C[C@H](O)[C@@H](COS(N)(=O)=O)[C@@H]3F)sc21 [Compound 325] | > 200
CC1=C[C@]2(NCCc3ccc(Cl)cc32)c2cc(C(=O)c3cncnc3N[C@H]3C[C@H](O)[C@@H](COS(N)(=O)=O)[C@@H]3F)sc21 [Compound 326] | ≤ 50
NS(=O)(=O)OC[C@H]1[C@H](F)[C@@H](Nc2ncncc2C(=O)c2cc3c(s2)C(F)(F)CC32NCCc3ccc(Cl)cc32)C[C@@H]1O (stereo partly drawn) [Compound 327] | 50 to 200
NS(=O)(=O)OC[C@H]1[C@H](F)[C@@H](Nc2ncncc2C(=O)c2cc3c(s2)C(F)(F)C[C@@]32NCCc3ccc(Cl)cc32)C[C@@H]1O [Compound 328] | > 200
NS(=O)(=O)OC[C@H]1[C@H](F)[C@@H](Nc2ncncc2C(=O)c2cc3c(s2)C(F)(F)C[C@]32NCCc3ccc(Cl)cc32)C[C@@H]1O [Compound 329] | 50 to 200
NS(=O)(=O)OC[C@H]1[C@H](F)[C@@H](Nc2ncncc2C(=O)c2cc3c(s2)C=C[C@@]32NCCc3ccc(F)cc32)C[C@@H]1O [Compound 345] | > 200
NS(=O)(=O)OC[C@H]1[C@H](F)[C@@H](Nc2ncncc2C(=O)c2cc3c(s2)C=C[C@]32NCCc3ccc(F)cc32)C[C@@H]1O [Compound 346] | ≤ 50
NS(=O)(=O)OC[C@H]1[C@H](F)[C@@H](Nc2ncncc2C(=O)c2cc3c(s2)COCC32NCCc3ccc(Cl)c(Cl)c32)C[C@@H]1O (stereo partly drawn) [Compound 558] | 50 to 200
NS(=O)(=O)OC[C@H]1[C@H](F)[C@@H](Nc2ncncc2C(=O)c2cc3c(s2)COC[C@@]32NCCc3ccc(Cl)c(Cl)c32)C[C@@H]1O [Compound 559] | > 200
NS(=O)(=O)OC[C@H]1[C@H](F)[C@@H](Nc2ncncc2C(=O)c2cc3c(s2)COC[C@]32NCCc3ccc(Cl)c(Cl)c32)C[C@@H]1O [Compound 560] | 50 to 200

SMILES | IC50 [nM]
NS(=O)(=O)OC[C@H]1[C@H](F)[C@@H](Nc2ncncc2C(=O)c2cc3c(s2)COCC32NCCc3cc(Cl)c(Cl)cc32)C[C@@H]1O (stereo partly drawn) [Compound 561] | 50 to 200
NS(=O)(=O)OC[C@H]1[C@H](F)[C@@H](Nc2ncncc2C(=O)c2cc3c(s2)COC[C@@]32NCCc3cc(Cl)c(Cl)cc32)C[C@@H]1O [Compound 562] | > 200
NS(=O)(=O)OC[C@H]1[C@H](F)[C@@H](Nc2ncncc2C(=O)c2cc3c(s2)COC[C@]32NCCc3cc(Cl)c(Cl)cc32)C[C@@H]1O [Compound 563] | 50 to 200
NS(=O)(=O)OC[C@H]1[C@H](F)[C@@H](Nc2ncncc2C(=O)c2cc3c(s2)COCC32NCCc3c(Cl)cc(Cl)cc32)C[C@@H]1O (stereo partly drawn) [Compound 564] | 50 to 200
NS(=O)(=O)OC[C@H]1[C@H](F)[C@@H](Nc2ncncc2C(=O)c2cc3c(s2)COC[C@@]32NCCc3c(Cl)cc(Cl)cc32)C[C@@H]1O [Compound 565] | > 200
NS(=O)(=O)OC[C@H]1[C@H](F)[C@@H](Nc2ncncc2C(=O)c2cc3c(s2)COC[C@]32NCCc3c(Cl)cc(Cl)cc32)C[C@@H]1O [Compound 566] | 50 to 200
NS(=O)(=O)OC[C@H]1[C@H](F)[C@@H](Nc2ncncc2C(=O)c2cc3c(s2)COCC32NCCc3ccc(Cl)c(F)c32)C[C@@H]1O (stereo partly drawn) [Compound 567] | 50 to 200
NS(=O)(=O)OC[C@H]1[C@H](F)[C@@H](Nc2ncncc2C(=O)c2cc3c(s2)COC[C@@]32NCCc3ccc(Cl)c(F)c32)C[C@@H]1O [Compound 568] | > 200
NS(=O)(=O)OC[C@H]1[C@H](F)[C@@H](Nc2ncncc2C(=O)c2cc3c(s2)COC[C@]32NCCc3ccc(Cl)c(F)c32)C[C@@H]1O [Compound 569] | 50 to 200
NS(=O)(=O)OC[C@H]1[C@H](F)[C@@H](Nc2ncncc2C(=O)c2cc3c(s2)COCC32NCCc3cc(F)c(Cl)cc32)C[C@@H]1O (stereo partly drawn) [Compound 570] | 50 to 200
NS(=O)(=O)OC[C@H]1[C@H](F)[C@@H](Nc2ncncc2C(=O)c2cc3c(s2)COC[C@@]32NCCc3cc(F)c(Cl)cc32)C[C@@H]1O [Compound 571] | > 200
NS(=O)(=O)OC[C@H]1[C@H](F)[C@@H](Nc2ncncc2C(=O)c2cc3c(s2)COC[C@]32NCCc3cc(F)c(Cl)cc32)C[C@@H]1O [Compound 572] | 50 to 200
NS(=O)(=O)OC[C@H]1[C@H](F)[C@@H](Nc2ncncc2C(=O)c2cc3c(s2)COCC32NCCc3c(F)cc(Cl)cc32)C[C@@H]1O (stereo partly drawn) [Compound 573] | 50 to 200
NS(=O)(=O)OC[C@H]1[C@H](F)[C@@H](Nc2ncncc2C(=O)c2cc3c(s2)COC[C@@]32NCCc3c(F)cc(Cl)cc32)C[C@@H]1O [Compound 574] | > 200
NS(=O)(=O)OC[C@H]1[C@H](F)[C@@H](Nc2ncncc2C(=O)c2cc3c(s2)COC[C@]32NCCc3c(F)cc(Cl)cc32)C[C@@H]1O [Compound 575] | 50 to 200
CN1Cc2sc(C(=O)c3cncnc3N[C@H]3C[C@H](O)[C@@H](COS(N)(=O)=O)[C@@H]3F)cc2C2(C1)NCCc1ccc(Cl)cc12 (stereo partly drawn) [Compound 576] | ≤ 50
NS(=O)(=O)OC[C@H]1[C@H](F)[C@@H](Nc2ncncc2C(=O)c2cc3c(s2)CN(C2CC2)CC32NCCc3ccc(Cl)cc32)C[C@@H]1O (stereo partly drawn) [Compound 579] | ≤ 50
NS(=O)(=O)OC[C@H]1[C@H](F)[C@@H](Nc2ncncc2C(=O)c2cc3c(s2)CNCC32NCCc3ccc(Cl)cc32)C[C@@H]1O (stereo partly drawn) [Compound 582] | 50 to 200
NS(=O)(=O)OC[C@H]1[C@H](F)[C@@H](Nc2ncncc2C(=O)c2cc3c(s2)CNC[C@@]32NCCc3ccc(Cl)cc32)C[C@@H]1O [Compound 583] | > 200

same assay, conditions: numeric values, 6 h at 37° C.

SMILES | IC50 [nM]
NS(=O)(=O)OC[C@H]1[C@H](F)[C@@H](Nc2ncncc2C(=O)c2cc3c(s2)CSC[C@@]32NCCc3ccc(Cl)cc32)C[C@@H]1O [Compound 301] | > 1000
NS(=O)(=O)OC[C@H]1[C@H](F)[C@@H](Nc2ncncc2C(=O)c2cc3c(s2)CSC[C@]32NCCc3ccc(Cl)cc32)C[C@@H]1O [Compound 302] | 21.5
NS(=O)(=O)OC[C@H]1[C@H](F)[C@@H](Nc2ncncc2C(=O)c2cc3c(s2)C=C[C@@]32NCCc3ccc(Cl)cc32)C[C@@H]1O [Compound 343] | > 1000
CN1Cc2sc(C(=O)c3cncnc3N[C@H]3C[C@H](O)[C@@H](COS(N)(=O)=O)[C@@H]3F)cc2[C@@]2(C1)NCCc1ccc(Cl)cc12 [Compound 577] | > 1000
CN1Cc2sc(C(=O)c3cncnc3N[C@H]3C[C@H](O)[C@@H](COS(N)(=O)=O)[C@@H]3F)cc2[C@]2(C1)NCCc1ccc(Cl)cc12 [Compound 578] | 29.2
NS(=O)(=O)OC[C@H]1[C@H](F)[C@@H](Nc2ncncc2C(=O)c2cc3c(s2)CN(C2CC2)C[C@@]32NCCc3ccc(Cl)cc32)C[C@@H]1O [Compound 580] | > 1000
NS(=O)(=O)OC[C@H]1[C@H](F)[C@@H](Nc2ncncc2C(=O)c2cc3c(s2)CN(C2CC2)C[C@]32NCCc3ccc(Cl)cc32)C[C@@H]1O [Compound 581] | 23.8
